# Assay: ELISA: anti-calcitonin antibody epitope and bone calcium binding on calcium phosphate coated plate (SMCC series)
# Details: 1 μg/well, OD 650 nm
# Protocol: sCT or sCT analogues equivalent to 1 μg/well were added in Calcium Phosphate coated Osteoclast Activity Assay Substrate plate (OCT USA, Inc.) in duplicate and the binding of BP to the calcium phosphate was allowed for 1 hours in the presence of 100 μl 100 mM Sodium Phosphate buffer pH 7. Plates were then washed three times with the same buffer containing 0.05% v/v Tween 80 (PBST). To avoid nonspecific binding, the wells were incubated with 3% w/v Bovine Serum Albumin for 1 h at room temperature. After washings, the wells were incubated with 100 μl of 1:5000 diluted rabbit anti-salmon calcitonin primary antibodies (US Biologicals, USA) for 1 h at room temperature. The wells were then washed three times with PBST and the bound antibodies were then incubated with secondary antibody, 1:5000 diluted goat anti-rabbit IgG conjugated with horseradish peroxidase (GAM-HRPO), for 1 h at room temperature. After final washings, 100 μl of 3,3′,5,5′-tetramethylbenzidine (TMB substrate) was added to each well and incubated for 15 min at room temperature. The optical density (OD) was measured at 650 nm using an ELISA Vmax kinetic microplate reader (Molecular Devices Corp., California, and USA).
substance,measurement,value
"Salmon calcitonin [sCT, reference compound]",detection in ELISA after binding to calcium phosphate plate,not significantly detected

# From US8772235B2, “Compounds having peptides conjugated to bone targeting moieties and methods of making and using thereof” (The Governors of the University of Alberta, priority 2009, dated 2014)
